Earlier results on one compound are cited in patent US6770729B2, “Polymer compositions containing bioactive agents and methods for their use” (priority 2002, dated 2004).

For the data set, the target named is avidin (Gallus gallus, UniProt P02701).
Chain of avidin (P02701 25-152): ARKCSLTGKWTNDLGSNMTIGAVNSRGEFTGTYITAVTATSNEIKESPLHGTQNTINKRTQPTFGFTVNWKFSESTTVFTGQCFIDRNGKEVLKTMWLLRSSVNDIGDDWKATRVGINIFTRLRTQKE

`O=C(O)CCCC[C@@H]1SC[C@@H]2NC(=O)N[C@@H]21` [biotin]: the binding constant entry (avidin tetramer binds 4 biotin molecules in solution, noncovalent interaction) is given as “about 10^15 M^−1”. For the same compound, under “avidin-biotin interaction, dissociation of the complex”, the half-life in vivo result is reported as “about 89 days”.
